Among the test systems are A549 NSCLC; EKVX NSCLC; HCC-2998 colon; M14 melanoma; MALME-3M melanoma; NCI-H460 lung; OVCAR-8 ovarian; SK-OV-3 ovarian; SNB-19 CNS; SNB-75 CNS.
What all share (test): NCI-60 cell line screen, 48 h

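Each compound was tested at five concentrations against cells in 96-well plates for 48 hours. GI50 is the concentration that inhibits growth by half. TGI marks complete inhibition of growth.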

For the compound `N#Cc1c(N2CCCC2)[nH]c(=O)c(C(c2c(Cl)cccc2Cl)c2c(O)c(C#N)c(N3CCCC3)[nH]c2=O)c1O`, the GI50 in the test on A549 NSCLC is 18.8 µM; with EKVX NSCLC, 0.0367 µM; with HCC-2998 colon, 12.1 µM; with M14 melanoma it was 11.4 µM; in the test with MALME-3M melanoma, 19.3 µM; with NCI-H460 lung, 18.2 µM. In addition, the GI50 with OVCAR-8 ovarian was 15.8 µM; in the test with SK-OV-3 ovarian, 0.0847 µM; with SNB-19 CNS it was 4.24 µM; in the test on SNB-75 CNS, 12.5 µM. Moreover, the TGI was found to be 36 µM in the test with A549 NSCLC; 17.1 µM in the test on EKVX NSCLC; 25.7 µM with HCC-2998 colon; 24 µM in the test with M14 melanoma; 36.4 µM with MALME-3M melanoma; 38.4 µM in the test with NCI-H460 lung. The TGI with OVCAR-8 ovarian is 33.1 µM; with SK-OV-3 ovarian it was 21 µM; in the test on SNB-19 CNS it was 18.2 µM; in the test with SNB-75 CNS, 33 µM.

As to `O=C(CN1CCOCC1)Nc1nc(-c2ccc(Cl)cc2)cs1`, the TGI in the test on A549 NSCLC is more than 100 µM; in the test with EKVX NSCLC, more than 100 µM; with HCC-2998 colon, more than 100 µM; with M14 melanoma it was more than 100 µM; in the test with MALME-3M melanoma, 65.2 µM; in the test on NCI-H460 lung, more than 100 µM. The TGI with OVCAR-8 ovarian is 72.2 µM; in the test with SK-OV-3 ovarian, more than 100 µM; in the test with SNB-19 CNS it was more than 100 µM; in the test with SNB-75 CNS, 62.6 µM.

In the case of `COC(=O)C(=O)C1(CCC(C)=O)c2ccccc2-c2c(C)ccc(C)c21` (stereo not given), the TGI in the test with A549 NSCLC, in the test on EKVX NSCLC, in the test with HCC-2998 colon, in the test with M14 melanoma, with MALME-3M melanoma and with NCI-H460 lung was more than 100 µM each time. Moreover, the TGI with OVCAR-8 ovarian, with SK-OV-3 ovarian, in the test with SNB-19 CNS and in the test with SNB-75 CNS was more than 100 µM in each case.

The values above are taken from PubChem BioAssay (NCI).
